In this assay the test system is partially purified slow reacting substance of anaphylaxis (SRS-A) obtained from guinea pig lung. The assay is described as follows: Inhibition of SRS-A induced contraction of guinea pig ileum. The conditions noted are these: compound concentration 5×10^-6 M, agonist SRS-A 40 μg/ml, 15 min, 5 µM. Here is the method: The SRS-A antagonist activity of the compounds of this invention is measured by the ability of the active medicament to inhibit SRS-A induced contraction of guinea pig ileum. In this test system, sections of ileum are resected from guinea pigs and placed in 5 ml. tissue baths containing a modified Tyrode's solution. One end of the tissue is fixed to a glass tissue holder, the other is connected to a force-displacement transducer and the tissue is placed under a tension of 500 mg. Isometric tissue contractions are recorded on a six channel polygraph. Baths are constantly aerated with 95% O2 -5% CO2. After a 20 minute stabilization period a concentration of the appropriate agonist which provides a contraction height of 60-80% of the maximum obtainable to that agonist (as determined from full sequential concentration--response curves in separate experiments) is added to the tissue bath and the response recorded. The procedure is repeated until reproducible responses are obtained. […] Percent inhibition produced by the test compound is calculated by subtracting the mean percentage change in control tissue from the mean percentage change in tissues exposed to the test compound. Additional compounds are then evaluated as long as the tissue remains reproducibly responsive to the agonist. […]

Experimental findings from US4385047A, “Antiallergic imidodisulfamides” (SmithKline Beckman Corporation, priority 1981, dated 1983) are described below.

For `O=C(CS(=O)(=O)c1ccc2c(c1)CN(S(=O)(=O)NS(=O)(=O)N1CCc3ccc(S(=O)(=O)CC(=O)c4ccc(Cl)cc4)cc3C1)CC2)c1ccc(Cl)cc1` [Compound 1, N,N'-bis[7-(4-chlorobenzoylmethylsulfonyl)-1,2,3,4-tetrahydroisoquinolyl]disulfonylimide], the “percent antagonism of SRS-A induced contraction” value is 60%.
